The text below walks through data of patent publication US8697911B2, “Rho kinase inhibitors” (Boehringer Ingelheim International GmbH, priority 2010, dated 2014).

Like-named read-outs stand apart in the source and are kept apart here.

Assay [1] deals with neointimal formation in rats. As to conditions: cited from earlier work.
For another assay, the system named is Dahl salt-sensitive rats. The note with it: rat, in vivo; cited from earlier work.
The subject of assay [2] is spontaneously hypertensive rat, renal hypertensive rat and deoxycortisone acetate salt hypertensive rat models. The note with it: cited from earlier work.
Assay [3] deals with T1, ROCKII (1-543) (Homo sapiens (Human), UniProt O75116). The assay is described as follows: Luciferin-Luciferase Assay (Assay 1). The assay is classed as biochemical. The note with it: luciferin-luciferase residual ATP; 750 nM ATP, 7.5 nM kinase. As to the method:
1. Luciferin-Luciferase Assay
The activity of ROCKII (1-543) kinase is measured utilizing Cambrex PKLight ATP Detection Reagent, a homogeneous assay technology using luciferin-luciferase to quantify residual ATP. The assay is performed in 384-well low-volume, white, non-binding surface microtiter plates (Corning). The assay buffer is 25 mM HEPES, pH 7.5, 10 mM MgCl2, 50 mM KCl, 0.2% BSA, 0.01% CHAPS, 100 μM Na3VO4 and 0.5 mM DTT. Test compounds, dissolved in neat DMSO at 500 μg/mL, are serially diluted for dose response for a final starting concentration of 3 μg/mL in 1% DMSO of assay buffer. ROCKII (1-543) (62,408 Da) is diluted in assay buffer to a final concentration of 7.5 nM in a total volume of 15 μL. Positive controls are reaction mixtures containing no test compound; negative controls (blanks) are reaction mixtures containing no kinase. After 15 minutes of pre-incubation of the test compounds with the kinase, a mixture of ATP and peptide substrate ([…]) in assay buffer is added to each well for a final concentration of 750 nM ATP and 500 nM peptide, respectively. After 90 minutes of incubation of the kinase reaction at 28° C. temperature, 10 μL of PKLight ATP Detection Reagent (warmed to room temperature previously) is added to each well. The assay plate is incubated at room temperature for additional 15 minutes and then read on an Analyst in luminescence mode. Dose-response experiments for each of the test compounds are conducted in quadruplet. IC50 values of test compounds represent 50% response of the positive control from the dose-response curve.
Target sequence in this assay (O75116 1-543): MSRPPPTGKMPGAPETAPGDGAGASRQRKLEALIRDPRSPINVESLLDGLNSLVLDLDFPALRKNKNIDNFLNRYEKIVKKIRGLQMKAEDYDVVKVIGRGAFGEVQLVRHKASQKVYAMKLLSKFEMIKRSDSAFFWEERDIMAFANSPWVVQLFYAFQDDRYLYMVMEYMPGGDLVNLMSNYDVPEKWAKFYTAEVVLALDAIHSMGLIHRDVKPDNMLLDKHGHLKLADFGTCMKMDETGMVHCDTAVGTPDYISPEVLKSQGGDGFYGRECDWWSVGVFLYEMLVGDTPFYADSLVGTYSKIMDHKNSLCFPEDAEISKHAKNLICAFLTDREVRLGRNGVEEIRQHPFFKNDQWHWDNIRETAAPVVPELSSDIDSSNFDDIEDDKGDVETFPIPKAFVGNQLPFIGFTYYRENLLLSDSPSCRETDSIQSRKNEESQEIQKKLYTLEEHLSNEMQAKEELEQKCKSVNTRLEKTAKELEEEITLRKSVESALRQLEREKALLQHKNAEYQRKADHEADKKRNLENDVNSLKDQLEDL

Assay [4] deals with T1, ROCKII (1-543). The assay is described as follows: IMAP Assay (Assay 2). The assay is classed as biochemical. As to conditions: IMAP fluorescence polarization; 100 μM ATP, 1 nM kinase. As to the method:
This assay is performed using FAM S6 substrate peptide (Catalogue #R7184) and IMAP FP Screening Express Kit detection reagents from Molecular Devices (Sunnyvale, Calif.) in IMAP kinase reaction buffer (Tris-HCl, pH 7.2, 10 mM MgCl2, 0.05% NaN3, 0.1% phosphate-free BSA) containing 1 mM DTT. Test compounds dissolved in neat DMSO at 0.3 mg/mL are serially diluted 1 to 3 for concentration response in 100% DMSO. The DMSO serial dilutions are further diluted 33.33-fold in kinase reaction buffer, and 10 μL of this buffer dilution is transferred to Corning black 96-well half area NBS plates for a final top concentration of 3 μg/mL in 1% DMSO. 10 μL aliquot of 3 nM ROCKII (1-543) diluted in kinase reaction buffer is added to each assay well for a final concentration of 1 nM kinase. 10 μL of a mixture of 600 nM FAM S6 peptide and 300 μM ATP diluted in kinase reaction buffer is added to each well for a final concentration of 200 nM peptide and 100 μM ATP. The kinase reaction mixture is incubated for 60 minutes at room temperature. Positive controls are reaction mixtures containing no test compound and negative controls (blanks) are reaction mixtures containing no kinase. The kinase reaction is stopped by addition of 60 μL IMAP progressive binding reagent (Catalog #R7284) diluted 400-fold in 1× Binding buffer A. After 30 min of incubation at room temperature, the plates are read for fluorescence polarization on Analyst Plate Reader using Ex 485 nm, Em 530 nm, and FL 505 dichroic minor. The mP signals are converted to percent of control (POC) values using the formula: POC=100*(Signal−BCTRL)÷(PCTRL−BCTRL)
Where Signal is the test well signal, BCTRL is the average of background (negative control) well signals on the plate and PCTRL is the average of positive control well signals on the plate. For the concentration-responsive compounds, POC as a function of test compound concentration is fitted to a 4-parameter logistic equation of the form: Y=A+(B−A)/[1+(x/C)D]
Where A, B, C, and D are fitted parameters (parameter B is fixed at zero POC), and x and y are the independent and dependent variables, respectively. The IC50 is determined as the inflection point parameter, C.
Target sequence in this assay (O75116 1-543, species assumed): as the sequence (O75116 1-543) above

Assay [5] has as its system IL-1 beta-induced coronary stenosis. As to conditions: long term treatment; cited from earlier work.
For another assay, the system named is rat stroke model. As to conditions: in vivo; cited from earlier work.

For `C[C@@H](N)[C@H]1CC[C@H](C(=O)Nc2ccncc2)CC1` [Y-27632], the neointimal formation result in assay [1] is listed as “inhibited neointimal formation”. Also, the “ventricular hypertrophy and function” value in the assay on Dahl salt-sensitive rats is “improve ventricular hypertrophy and function”. The results for the “effect on blood pressure” value in assay [2] (control rats) and in assay [2] (three rat models of hypertension) were “only a minor effect on blood pressure” and “significantly decrease blood pressure”, respectively.
With `CN1CCc2nc(NC(=O)c3cccc(CNC(=O)N4CCc5c(C#N)cccc54)c3)sc2C1` [compound 90], the half-inhibitory concentration (IC50) turned out to be 3.1 nM against ROCKII (1-543) [3] and 17 nM on ROCKII (1-543) [4].
Regarding `CN1CCc2nc(NC(=O)c3cccc(CNC(=O)c4csc(-c5ccncc5)n4)c3)sc2C1` [compound 22], the values for the half-maximal inhibitory concentration (IC50) against ROCKII (1-543) [3] and at ROCKII (1-543) [4] were 5.8 nM and 37 nM, respectively.
For the compound `CN1CCc2ccc(NC(=O)c3cccc(CNC(=O)c4cnc(-c5cccnc5)s4)c3)cc2C1` [compound 194], the IC50 against ROCKII (1-543) [3] was determined as 4.8 nM; on ROCKII (1-543) [4] it was 30 nM.
On to `CN1CCc2nc(NC(=O)c3cccc(CNC(=O)c4cc5cc(C#N)ccc5n4C)c3)sc2C1` [compound 124], for which the results for the half-inhibitory concentration (IC50) against ROCKII (1-543) [3] and on ROCKII (1-543) [4] were 3.8 nM and 11 nM, respectively.
For the compound `Cc1cc(-c2ccc(C(=O)NCc3cccc(C(=O)Nc4nc5c(s4)CN(C)CC5)c3)cc2)ccn1` [compound 144, 3-[4-(2-picoline-4-yl)-benzamidomethyl-N-(5-methyl-4,5,6,7-tetrahydro-thiazolo[5,4-c]pyridin-2-yl)-benzamide]], the IC50 came out at 2.6 nM on ROCKII (1-543) [3] and 4.35 nM at ROCKII (1-543) [4].
In the case of `CN1CCc2ccc(NC(=O)c3cccc(CNC(=O)c4cc5ccc(C#N)cc5[nH]4)c3)cc2C1` [compound 52], the figures for the half-maximal inhibitory concentration (IC50) against ROCKII (1-543) [3] and against ROCKII (1-543) [4] were 2.2 nM and 8.1 nM, respectively.
In the case of `CN1CCc2ccc(NC(=O)c3cccc(CNC(=O)c4ccc(-c5cc[nH]n5)cc4)c3)cc2C1` [compound 155], the IC50 was 8.1 nM against ROCKII (1-543) [3] and 47 nM at ROCKII (1-543) [4].
The corresponding values for `Cc1nccn1-c1ccc(C(=O)NCc2cccc(C(=O)Nc3ccc4c(c3)CN(C)CC4)c2)cc1` [compound 200] are 3 nM and 1.6 nM.
In the case of `CN1CCc2ccc(NC(=O)c3cccc(CNC(=O)c4cc5cc(C(N)=O)ccc5n4C)c3)cc2C1` [compound 96], the IC50 against ROCKII (1-543) [3] is 3.8 nM; on ROCKII (1-543) [4] it was 12.2 nM.
As for `Cc1c(C(=O)NCc2cccc(C(=O)Nc3nc4c(s3)CN(C)CC4)c2)nnn1-c1nonc1N` [compound 44], the values for the concentration for half-maximal inhibition (IC50) against ROCKII (1-543) [3] and at ROCKII (1-543) [4] were 1.8 nM and 9.3 nM, respectively.
For `CN1CCc2ccc(NC(=O)c3cccc(CNC(=O)c4cccc(-c5cnco5)c4)c3)cc2C1` [compound 190], the IC50 came out at 6.5 nM on ROCKII (1-543) [3] and 56 nM on ROCKII (1-543) [4].
Take `CN1CCc2ccc(NC(=O)c3cccc(CNC(=O)c4cc5cc(C#N)ccc5n4C)c3)cc2C1` [compound 94]: the IC50 against ROCKII (1-543) [3] came out at 8.1 nM; against ROCKII (1-543) [4], 46 nM.
For `CN1CCc2nc(NC(=O)c3cccc(CNC(=O)c4cccc(-c5cccnc5)c4)c3)sc2C1` [compound 4], the IC50 amounted to 22.5 nM against ROCKII (1-543) [3] and 73 nM against ROCKII (1-543) [4].
Regarding `CN1CCc2ccc(NC(=O)c3cccc(CNC(=O)c4ccc(-c5ccncc5)cc4)c3)cc2C1` [compound 129], the 50% inhibitory concentration (IC50) turned out to be 1.3 nM on ROCKII (1-543) [3] and 0.195 nM against ROCKII (1-543) [4].
Consider `CN1CCc2nc(NC(=O)c3cccc(CNC(=O)c4cc(-c5ccncc5)n[nH]4)c3)sc2C1` [compound 74], for which the IC50 on ROCKII (1-543) [3] came out at 1.3 nM; on ROCKII (1-543) [4], 0.23 nM.
For `CN1CCc2ccc(NC(=O)c3cccc(CNC(=O)c4ccc(-c5cnco5)s4)c3)cc2C1` [compound 64], the IC50 against ROCKII (1-543) [3] came out at 1.5 nM; against ROCKII (1-543) [4], 1 nM.
On to `CN1CCc2ccc(NC(=O)c3cccc(CNC(=O)c4cc5ccc(C(N)=O)cc5[nH]4)c3)cc2C1` [compound 54], for which the results for the IC50 against ROCKII (1-543) [3] and against ROCKII (1-543) [4] were 1.3 nM and 0.45 nM, respectively.
With `CN1CCc2nc(NC(=O)c3cccc(CNC(=O)c4cccc(-c5cn[nH]c5)c4)c3)sc2C1` [compound 6], the values for the IC50 against ROCKII (1-543) [3] and at ROCKII (1-543) [4] were 2 nM and 0.53 nM, respectively.
The corresponding values for `Cc1nc(-c2ccncc2)sc1C(=O)NCc1cccc(C(=O)Nc2nc3c(s2)CN(C)CC3)c1` [compound 76] are 1.2 nM and 1.4 nM.
The matching figures for `CN1CCc2ccc(NC(=O)c3cccc(CNC(=O)c4nnn(-c5nonc5N)c4-c4ccccc4)c3)cc2C1` [compound 123]: 1.7 nM and 3.9 nM.
Regarding `N[C@H]1CCc2nc(NC(=O)c3cccc(CNC(=O)c4cccc(-c5cn[nH]c5)c4)c3)sc2C1` [compound 30], the values for the IC50 against ROCKII (1-543) [3] and against ROCKII (1-543) [4] were 0.72 nM and 0.16 nM, respectively.
As for `CN1CCc2ccc(NC(=O)c3cccc(CNC(=O)c4cn5ccc(C(N)=O)cc5n4)c3)cc2C1` [compound 50, imidazo[1,2-a]pyridine-2,7-dicarboxylic acid 7-amide 2-[3-(2-methyl-1,2,3,4-tetrahydro-isoquinolin-7-ylcarbamoyl)-benzylamide]], the half-inhibitory concentration (IC50) on ROCKII (1-543) [3] came out at 2.9 nM; at ROCKII (1-543) [4], 11 nM.
As for `Cc1c(C(=O)NCc2cccc(C(=O)Nc3nc4c(s3)C[C@@H](N3CCOCC3)CC4)c2)nnn1-c1nonc1N` [compound 152], the IC50 is 1.9 nM against ROCKII (1-543) [3] and 0.57 nM on ROCKII (1-543) [4].
With `CN1CCc2ccc(NC(=O)c3cccc(CNC(=O)c4ccc5cc(O)ccc5c4)c3)cc2C1` [compound 29], the IC50 on ROCKII (1-543) [3] was 2.6 nM; at ROCKII (1-543) [4], 2 nM.
In the case of `CN1CCc2ccc(NC(=O)c3cccc(CNC(=O)c4csc(-c5cccnc5)n4)c3)cc2C1` [compound 27], the IC50 is 9.8 nM against ROCKII (1-543) [3] and 45 nM at ROCKII (1-543) [4].
As to `O=S(=O)(c1cccc2cnccc12)N1CCCNCC1` [fasudil], in assay [5], the coronary constrictive remodeling entry is given as “promote a regression of coronary constrictive remodeling” and the coronary stenosis entry is given as “progressively reduce coronary stenosis”. Besides, the “infarct size and neurologic deficit” value in the assay with rat stroke model is “reduce both the infarct size and neurologic deficit”.
As to `CN1CCc2ccc(NC(=O)c3cccc(CNC(=O)c4cc(-c5ccncc5)[nH]n4)c3)cc2C1` [compound 119], the values for the half-inhibitory concentration (IC50) against ROCKII (1-543) [3] and against ROCKII (1-543) [4] were 1.3 nM and 0.22 nM, respectively.
For the compound `CN1CCc2ccc(NC(=O)c3cccc(CNC(=O)c4cn5cc(C(N)=O)ccc5n4)c3)cc2C1` [compound 21], the IC50 was 5.9 nM on ROCKII (1-543) [3] and 25 nM on ROCKII (1-543) [4].
Take `CN1CCc2ccc(NC(=O)c3cccc(CNC(=O)c4ccc(-n5cncn5)cc4)c3)cc2C1` [compound 178, 4-[1,2,4]triazol-1-yl-benzoic acid 3-(2-methyl-1,2,3,4-tetrahydro-isoquinolin-7-ylcarbamoyl)-benzylamide]: the results for the IC50 on ROCKII (1-543) [3] and on ROCKII (1-543) [4] were 5.7 nM and 48 nM, respectively.
Turning to `Cc1cc(-c2ncc(C(=O)NCc3cccc(C(=O)Nc4nc5c(s4)CN(C)CC5)c3)s2)ccn1` [compound 154], the IC50 on ROCKII (1-543) [3] amounted to 9.5 nM; at ROCKII (1-543) [4], 39 nM.
Regarding `CN1CCc2ccc(NC(=O)c3cccc(CNC(=O)c4ccc(-c5ccn[nH]5)cc4)c3)cc2C1` [compound 179], the IC50 against ROCKII (1-543) [3] is 6.6 nM; on ROCKII (1-543) [4] it was 34 nM.
